Measurements published in paper PMC3745430, “Novel Multiplexed Assay for Identifying SH2 Domain Antagonists of STAT Family Proteins” (PLoS ONE, 2013).
pIC50: −log10 of the molar value.

Legend:
STAT5b(136–703) = target: T1, STAT5b(136–703) (Homo sapiens, UniProt P51692); experiment: Single STAT5b-SH2 binding assay (AlphaScreen); conditions: non-multiplexed single assay
T1 construct: 136 to 703 of human STAT5b; 6×His-tag (N); made in house; host or cells: E. coli BL-21 Star (DE3) pLysS co-transformed with pBirAcm
T1 sequence (P51692 136-703): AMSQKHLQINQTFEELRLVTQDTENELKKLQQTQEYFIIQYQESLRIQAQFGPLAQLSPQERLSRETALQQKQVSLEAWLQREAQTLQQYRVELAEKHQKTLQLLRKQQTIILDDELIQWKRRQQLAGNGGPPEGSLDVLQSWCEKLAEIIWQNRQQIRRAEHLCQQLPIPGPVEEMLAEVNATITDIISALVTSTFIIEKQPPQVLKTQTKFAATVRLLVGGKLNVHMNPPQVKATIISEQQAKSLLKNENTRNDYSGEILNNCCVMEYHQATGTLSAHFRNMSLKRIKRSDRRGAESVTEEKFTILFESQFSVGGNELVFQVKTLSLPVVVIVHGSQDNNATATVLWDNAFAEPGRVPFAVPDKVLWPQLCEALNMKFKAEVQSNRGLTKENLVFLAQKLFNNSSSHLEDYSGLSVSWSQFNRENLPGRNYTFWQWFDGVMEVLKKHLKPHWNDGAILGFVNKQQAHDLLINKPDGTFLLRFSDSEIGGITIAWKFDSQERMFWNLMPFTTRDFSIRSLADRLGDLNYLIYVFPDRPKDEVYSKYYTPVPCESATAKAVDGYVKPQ
Method: Both AlphaLISA and AlphaScreen are bead-based nonradioactive binding assay systems for detecting biomolecular interactions in a microplate format. The binding of the biological partners brings the donor and acceptor beads into close proximity, and AlphaLISA produces a specific signal around 615 nm and AlphaScreen emits a broad signal between 520 and 620 nm. The assays were performed in a final reaction volume of 25 µL of the assay buffer, which contained 10 mM HEPES-NaOH (pH 7.4), 50 mM NaCl, 1 mM EDTA (pH 8.0), 0.1% (w/v) NP-40, and 10 ng/µL (w/v) BSA in a 96-well microplate at 25°C. The labeled phosphotyrosyl (pTyr, pY) peptide probes were DIG-GpYLPQTV and FITC-GpYLVLDKW for STAT3 and STAT5b, respectively. In the single assay for STAT3 binding, 100 nM STAT3(136–705) protein was incubated with a test compound dissolved in DMSO for 30 min, and 1.0 nM DIG-GpYLPQTV was added and the mixture was incubated for 90 min. Streptavidin-coated donor beads (0.25 µg/well) and anti-DIG AlphaLISA acceptor beads (0.25 µg/well) were added and incubated for 90 min before the signals were measured with EnVison Xcite (PerkinElmer Life Sciences). In the single assay for STAT5b binding, 20 nM STAT5b(136–703) was incubated with a test compound for 30 min, and 1.0 nM FITC-GpYLVLDKW was added and incubated for 90 min. Streptavidin-coated donor beads (0.25 µg/well) and anti-FITC AlphaScreen acceptor beads (0.25 µg/well) were added and incubated for 90 min before the signals were measured with EnVison Xcite. In the multiplexed assay, 100 nM STAT3(136–705) and 20 nM STAT5b(136–703) were incubated with a test compound for 30 min, and 1.0 nM DIG-GpYLPQTV and 1.0 nM FITC-GpYLVLDKW were added and incubated for 90 min. Streptavidin-coated donor beads (0.50 µg/well), anti-DIG AlphaLISA (0.25 µg/well), and anti-FITC AlphaScreen acceptor beads (0.25 µg/well) were added and incubated for 90 min before the signals were measured with EnVison Xcite. AlphaLISA and AlphaScreen signals for measuring STAT3- and STAT5b-SH2 binding, respectively, can be separately measured by using a dysprosium 572 nm and a europium 615 nm narrow bandwidth filter. In inhibitory assays, these signals for the bound state and the free state were represented as 0% and 100% inhibition, respectively. The bound state was measured by incubating the labeled peptide and the protein without test compounds. The free state was measured by incubating the same mixture with an additional 10 µM non-labeled peptide contained phosphorylated tyrosine, which competitively binds to its corresponding protein. The IC50 value was calculated by Graph pad prism 4.0. The mean and the standard error (SEM) of IC50 values were determined from three independent experiments. The Z’ value was calculated using the equation Z’ = 1–(3×SD_bound +3×SD_free)/(Signal_bound – Signal_free). STAT1 and Grb2 binding assays were performed as described in previous report. In the assays for selectivity of Compound 1, 100 pM biotinylated DIG or 100 pM biotinylated FITC was incubated with 10 µM or 30 µM Compound 1 for 30 min. Streptavidin-coated donor beads (0.25 µg/well) and anti-DIG AlphaLISA acceptor beads (0.25 µg/well) or anti-FITC AlphaScreen acceptor beads (0.25 µg/well) were added and incubated for 90 min before the signals were measured with EnVison Xcite.

[1] = tested on: STAT3 reporter HeLa stable cell line; experiment: STAT3 luciferase reporter gene assay; assay type: cell-based; conditions: pretreatment before oncostatin M stimulation (Figure S10)
Method: STAT3 reporter HeLa stable cell lines were incubated in a 96-well microplate for 24 hours. Cells were pretreated with test compounds for 1 hour, and 10 ng/ml (w/v) of oncostatin M were applied and incubated for 4 hours. Cells were washed with medium not supplemented with phenol red, and Steady-Glo® reagent (Promega) was applied. After 5 min incubation, the signals were detected by ARVO Light 1420 (PerkinElmer Life Sciences). The relative signal intensity was calculated in each well as the ratio for the mean signal of vehicle.

pIC50 (STAT5b(136–703)): 5.00
Structure (SMILES): O=C1C=CC(=NC2=C(Cl)C(=O)c3ccccc3C2=O)C=C1 [Compound 1]
Effect on STAT3 transcriptional activity [1]: reduced the STAT3 transcriptional activity in a dose-dependent manner
